Experimental data: patent publication US20250332112A1, “IONIZABLE CATIONIC LIPIDS FOR LIPID NANOPARTICLES” (GENEVANT SCIENCES GMBH, priority 2022, published 2025)

Key:
[1] = Particle characteristics of LNPs containing luciferase mRNA and novel ionizable lipids; type: physicochemical; conditions: luciferase mRNA LNP 1.6:54.6:32.8:10.9
Summary of the method: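 LNPs made from PEG-lipid, ionizable lipid, cholesterol and phospholipid in ethanol, T-mixed with luciferase mRNA in 100 mM acetate pH 5. Products were dialysed, concentrated, and dialysed into 5 mM Tris, 10% sucrose, pH 8, then 0.2 μm filtered. mRNA was measured by RiboGreen, and size and polydispersity by dynamic light scattering on a Zetasizer.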

[2] = Parent ionizable lipid remaining in liver at 6 h after luciferase mRNA LNP (LC-MS); type: in vivo; conditions: 6 h after IV 0.5 mg/kg Luciferase mRNA LNP
Experimental: Liver tissues were treated with PBS and homogenized with a FastPrep machine, 3 cycles of 5 m/s×15 s. Homogenates from the PBS-treated control animals was pooled and used for standard curve preparation. Samples were extracted into a deep well plate with 250 μL of an internal suitability standard. Plates were centrifuged for 15 min at 4° C. and 2000 rpm. Analysis was performed using an Agilent 6520 QTOF coupled to an Agilent 1290 UHPLC, using reverse-phase LC separation. Quantitation of the ionizable lipid was by MS/MS against a calibration curve spiked into appropriately matched blank matrix. Calibration used a similar class of synthetic lipid as internal standard.
At 6 h post-dose, some treatment groups reported lower levels of novel ionizable lipid in mouse liver compared to the benchmark (Tables 16-18).

[3] = test system: luciferase activity in the liver; assay: Luciferase activity in liver after intravenous luciferase mRNA LNP; type: in vivo; conditions: 0.5 mg/kg IV, 6 h post-IV administration, BALB/c mice (n = 4)
[4] = Table 16, female BALB/c mice (n = 4)
[5] = Table 18, female BALB/c mice (n = 4)

| SMILES | Final Product % EE ([1]; Table 3) | Final Product PDI ([1]; Table 3) | Final Product Z-avg ([1]; Table 3) | Parent ionizable lipid remaining in liver, Average [2, 4] | Luc Activity ([3]; Table 10) | Final Product % EE ([1]; Table 7) | Final Product PDI ([1]; Table 7) | Final Product Z-avg ([1]; Table 7) | Parent ionizable lipid remaining in liver, Average [2, 5] | Luc Activity ([3]; Table 14) | other results |
| --- | --- | --- | --- | --- | --- | --- | --- | --- | --- | --- | --- |
| CCCCCCCCCCC(CCCCCCCC(=O)OCCC(CCCCC)CCCCC)N(CCCCCCCCC(=O)OCCC(CCCCC)CCCCC)C(=O)CCCCN(C)C (stereo not drawn) [Compound 65, 3-Pentyloctyl 9-(5-(dimethylamino)-N-(9-oxo-9-((3-pentyloctyl)oxy)nonyl)-pentanamido)-nonadecanoate] | – | – | – | – | – | – | – | – | – | – | Final Product % EE ([1]; Table 6): 98%; Final Product PDI ([1]; Table 6): 0.01; Final Product Z-avg ([1]; Table 6): 83 nm; Parent ionizable lipid remaining in liver, Average ([2]; Table 17, female mice (n = 4)): 27.84 nmol/g liver; Luc Activity ([3]; Table 13): 3.88E+07 pg/g liver |
| CCCCCCCCCCN(C(=O)CCCN(C)C)C(CCCCCCCCC)CCCCCCC(F)(F)C(=O)OCCC(CCCCCCC)CCCCCCC (stereo not drawn) [Compound 18, 3-Heptyldecyl 9-(N-decyl-4-(dimethylamino)butanamido)-2,2-difluorooctadecanoate] | – | – | – | – | – | – | – | – | – | – | Final Product % EE ([1]; Table 6): 98%; Final Product PDI ([1]; Table 6): 0.07; Final Product Z-avg ([1]; Table 6): 73 nm; Parent ionizable lipid remaining in liver, Average ([2]; Table 17, female mice (n = 4)): 17.02 nmol/g liver; Luc Activity ([3]; Table 13): 4.32E+07 pg/g liver |
| CCCCCCCCCCCCCOC(=O)CCCCC(CCCCCCCCCC)N(CCN(C)C)C(=O)CCCCC(=O)OCC(CCCC)CCCCCC (stereo not drawn) [Compound 23, tridecyl 6-{6-[(2-butyloctyl)oxy]-N-[2-(dimethylamino)ethyl]-6-oxohexanamido}hexadecanoate] | 97% | 0.06 | 69 nm | 31.85 nmol/g liver | 4.44E+06 pg/g liver | – | – | – | – | – | – |
| CCCCC/C=C\CCCC(CCC/C=C\CCCCC)NNC(=O)CC(CCCCCCCCC)N(CCCN(C)C)C(=O)CCCCCCCCC (stereo not drawn) [Compound 59, N-(3-(Dimethylamino)propyl)-N-(1-(2-((6Z,15Z)-henicosa-6,15-dien-11-yl)hydrazineyl)-1-oxododecan-3-yl)decanamide] | 99% | 0.07 | 82 nm | 22.67 nmol/g liver | 1.12E+06 pg/g liver | – | – | – | – | – | – |
| CCCCCCCCCCN(C(=O)CCCN(C)C)C(CCCCCCCCC)CCCCCCC(F)(F)C(=O)OCCC(CCCCC)CCCCC (stereo not drawn) [Compound 20, 3-Pentyloctyl 9-(N-decyl-4-(dimethylamino)butanamido)-2,2-difluorooctadecanoate] | – | – | – | – | – | 98% | 0.08 | 72 nm | 1.82 nmol/g liver | 2.71E+07 pg/g liver | – |
| CCCCCCCCCCC(CCCCCC(=O)OCC(CCCCCC)CCCCCCCC)N(CCCCCCCCCC)C(=O)CCCN(C)C (stereo not drawn) [Compound 4, 2-Hexyldecyl 7-(N-decyl-4-(dimethylamino)butanamido)heptadecanoate] | 99% | 0.03 | 82 nm | 18.97 nmol/g liver | 7.84E+07 pg/g liver | – | – | – | – | – | – |
| CCCCCCCCCCON(C(=O)CCCN(C)C)C(CCCCCCCCCC)CCCCCCC(F)(F)C(=O)OCCC(CCCCC)CCCCC (stereo not drawn) [Compound 39, 3-pentyloctyl 9-[N-(decyloxy)-4-(dimethylamino)butanamido]-2,2-difluorononadecanoate] | – | – | – | – | – | 98% | 0.19 | 59 nm | 2.91 nmol/g liver | 4.30E+06 pg/g liver | – |
| CCCCCCCCCCC(CCCCC(=O)OCc1cc(CCCCCC)cc(CCCCCC)c1)N(CCCN(C)C)C(=O)CCCCCCCCC (stereo not drawn) [Compound 60, (3,5-dihexylphenyl)methyl 6-{N-[3-(dimethylamino)propyl]decanamido}hexadecanoate] | 99% | 0.05 | 73 nm | 35.39 nmol/g liver | 8.23E+06 pg/g liver | – | – | – | – | – | – |
| CCCCC/C=C\CCCN(CCC/C=C\CCCCC)NC(=O)CC(CCCCCCCCC)N(CCCN(C)C)C(=O)CCCCCCCCC (stereo not drawn) [Compound 54, N-(1-(2,2-di((Z)-Dec-4-en-1-yl)hydrazineyl)-1-oxododecan-3-yl)-N-(3-(dimethylamino)-propyl)decanamide] | 97% | 0.05 | 82 nm | 17.78 nmol/g liver | 3.28E+06 pg/g liver | – | – | – | – | – | – |
| CCCCCCCCCCN(C(=O)CCCN(C)C)C(CCCCCCCCC)CCCCCCC(F)C(=O)OCC(CCCCCC)CCCCCCCC (stereo not drawn) [Compound 77, 2-Hexyldecyl 9-(N-decyl-4-(dimethylamino)butanamido)-2-fluorooctadecanoate] | – | – | – | – | – | 99% | 0.09 | 63 nm | 30.63 nmol/g liver | 3.26E+07 pg/g liver | – |
| CCCCCCCCCCCCC(=O)N(CCCN(C)C)C(CCCCCCCCCC)CCCCC(=O)OCc1cc(CCCCCC)cc(CCCCCC)c1 (stereo not drawn) [Compound 61, 3,5-Dihexylbenzyl 6-(N-(3-(dimethylamino)propyl)tridecanamido)hexadecanoate] | 99% | 0.05 | 76 nm | 27.21 nmol/g liver | 2.45E+07 pg/g liver | – | – | – | – | – | – |
| CCCCCCCCCCC(CCCCCC(=O)OCC(CCCCCC)CCCCCCCC)N(CCCCCCCCCC)C(=O)CCCCN(C)C (stereo not drawn) [Compound 3, 2-Hexyldecyl 7-(N-decyl-5-(dimethylamino)pentanamido)heptadecanoate] | 99% | 0.05 | 91 nm | 7.72 nmol/g liver | 5.94E+07 pg/g liver | – | – | – | – | – | – |
| CCCCCCCCCCC(CCCCCCC(F)(F)C(=O)OCCC(CCCCC)CCCCC)N(CCCCCCCC(=O)OCCC(CCCCC)CCCCC)C(=O)CCCN(C)C (stereo not drawn) [Compound 87, 3-pentyloctyl 9-[4-(dimethylamino)-N-{8-oxo-8-[(3-pentyloctyl)oxy]octyl}butanamido]-2,2-difluorononadecanoate] | – | – | – | – | – | 98% | 0.05 | 78 nm | 3.23 nmol/g liver | 1.18E+06 pg/g liver | – |
| CCCCCCCCCC(CCCCCCC(F)C(=O)OCCC(CCCCC)CCCCC)N(CCCCCCCC(=O)OCCC(CCCCC)CCCCC)C(=O)CCCN(C)C (stereo not drawn) [Compound 88, 3-pentyloctyl 9-[4-(dimethylamino)-N-{8-oxo-8-[(3-pentyloctyl)oxy]octyl}butanamido]-2-fluorooctadecanoate] | – | – | – | – | – | 99% | 0.04 | 72 nm | 7.88 nmol/g liver | 1.64E+07 pg/g liver | – |
| CCCCCCCCCCN(C(=O)CCCN(C)C)C(CCCCCCCCC)CC(=O)OCC(CCCCCC)CCCCCCCC (stereo not drawn) [Compound 32, 2-hexyldecyl 3-[N-decyl-4-(dimethylamino)-butanamido]dodecanoate] | 99% | 0.02 | 85 nm | 21.66 nmol/g liver | 3.07E+07 pg/g liver | – | – | – | – | – | – |
| CCCCCCCCCCON(C(=O)CCCCN(C)C)C(CCCCCCCCCC)CCCCCC(=O)OCC(CCCCCC)CCCCCCCC (stereo not drawn) [Compound 47, 2-Hexyldecyl 7-(N-(decyloxy)-5-(dimethylamino)pentanamido)heptadecanoate] | – | – | – | – | – | 98% | 0.07 | 77 nm | 54.78 nmol/g liver | 8.09E+07 pg/g liver | – |
| CCCCCCCCCCC(CCCCCCCC(=O)OC(CCCCCC)CCCCCC)N(CCCCCCCCCC)C(=O)CCCN(C)C (stereo not drawn) [Compound 5, Tridecan-7-yl 9-(N-decyl-4-(dimethylamino)butanamido)nonadecanoate] | – | – | – | – | – | – | – | – | – | – | Final Product % EE ([1]; Table 6): 99%; Final Product PDI ([1]; Table 6): 0.05; Final Product Z-avg ([1]; Table 6): 68 nm; Parent ionizable lipid remaining in liver, Average ([2]; Table 17, female mice (n = 4)): 49.53 nmol/g liver; Luc Activity ([3]; Table 13): 9.49E+07 pg/g liver |
| CCCCCCCCCC(CCCCCCC(F)C(=O)OCCC(CCCCC)CCCCC)N(CCCCCC(F)C(=O)OCCC(CCCCC)CCCCC)C(=O)CCCN(C)C (stereo not drawn) [Compound 34, 3-pentyloctyl 9-[4-(dimethylamino)-N-{6-fluoro-7-oxo-7-[(3-pentyloctyl)oxy]heptyl}butanamido]-2-fluorooctadecanoate] | – | – | – | – | – | 99% | 0.10 | 70 nm | 1.78 nmol/g liver | 1.91E+06 pg/g liver | – |
